Laboratory results: ChEMBL document CHEMBL3390836, “Mannich- and LedererManasse-based analogues of the natural product S-(+)-curcuphenol as cancer proliferation and migration inhibitors” (Medchemcomm, 2012)

Key:
Assay type in all cases: functional
NCI-H460 = assay: Cytotoxicity against human NCI-H460 cells assessed as cell growth at 10^-4 M after 48 hrs by SRB assay relative to control; details: NCI-H460, 48 h, read-out: Activity
HCC 2998 [1] = assay: Cytotoxicity against human HCC2998 cells assessed as cell growth at 10^-4 M after 48 hrs by SRB assay relative to control; details: HCC 2998, 48 h, read-out: Activity
KM12 = assay: Cytotoxicity against human KM12 cells assessed as cell growth at 10^-4 M after 48 hrs by SRB assay relative to control; details: KM12, 48 h, read-out: Activity
[2] = Cytotoxicity against human UACC62 cells after 48 hrs by SRB assay; details: UACC-62, 48 h
RXF 393 [3] = assay: Cytotoxicity against human RXF393 cells after 48 hrs by SRB assay; details: RXF 393, 48 h
MDA-MB-468 [4] = assay: Cytotoxicity against human MDA-MB-468 cells after 48 hrs by SRB assay; details: MDA-MB-468, 48 h
A549 = assay: Cytotoxicity against human A549 cells assessed as cell growth at 10^-8 M after 48 hrs by SRB assay relative to control; details: A549, 48 h, read-out: Activity
COLO 205 = assay: Cytotoxicity against human COLO205 cells assessed as cell growth at 10^-8 M after 48 hrs by SRB assay relative to control; details: COLO 205, 48 h, read-out: Activity
SK-MEL-28 = assay: Cytotoxicity against human SK-MEL-28 cells assessed as cell growth at 10^-4 M after 48 hrs by SRB assay relative to control; details: SK-MEL-28, 48 h, read-out: Activity
TK-10 [5] = assay: Cytotoxicity against human TK10 cells assessed as cell growth at 10^-4 M after 48 hrs by SRB assay relative to control; details: TK-10, 48 h, read-out: Activity
[6] = Cytotoxicity against human UO31 cells assessed as cell growth at 10^-4 M after 48 hrs by SRB assay relative to control; details: UO-31, 48 h, read-out: Activity
[7] = Cytotoxicity against human Hs 578T cells assessed as cell growth at 10^-4 M after 48 hrs by SRB assay relative to control; details: read-out: Activity
T47D = assay: Cytotoxicity against human T47D cells assessed as cell growth at 10^-4 M after 48 hrs by SRB assay relative to control; details: read-out: Activity
[8] = Cytotoxicity against human UACC62 cells assessed as cell growth at 10^-8 M after 48 hrs by SRB assay relative to control; details: UACC-62, 48 h, read-out: Activity
[9] = Cytotoxicity against human NCI-ADR-RES cells assessed as cell growth at 10^-8 M after 48 hrs by SRB assay relative to control; details: read-out: Activity
RXF 393 [10] = assay: Cytotoxicity against human RXF393 cells assessed as cell growth at 10^-8 M after 48 hrs by SRB assay relative to control; details: RXF 393, 48 h, read-out: Activity
TK-10 [11] = assay: Cytotoxicity against human TK10 cells assessed as cell growth at 10^-8 M after 48 hrs by SRB assay relative to control; details: TK-10, 48 h, read-out: Activity
[12] = Cytotoxicity against human PC3 cells assessed as cell growth at 10^-8 M after 48 hrs by SRB assay relative to control; details: PC-3, 48 h, read-out: Activity
HL-60(TB) = assay: Cytotoxicity against human HL-60(TB) cells assessed as cell growth at 10^-7 M after 48 hrs by SRB assay relative to control; details: HL-60, 48 h, read-out: Activity
SF-268 = assay: Cytotoxicity against human SF268 cells assessed as cell growth at 10^-7 M after 48 hrs by SRB assay relative to control; details: SF-268, 48 h, read-out: Activity
SNB-75 = assay: Cytotoxicity against human SNB75 cells assessed as cell growth at 10^-7 M after 48 hrs by SRB assay relative to control; details: SNB-75, 48 h, read-out: Activity
[13] = Cytotoxicity against human OVCAR3 cells assessed as cell growth at 10^-7 M after 48 hrs by SRB assay relative to control; details: OVCAR-3, 48 h, read-out: Activity
[14] = Cytotoxicity against human OVCAR5 cells assessed as cell growth at 10^-7 M after 48 hrs by SRB assay relative to control; details: OVCAR-5, 48 h, read-out: Activity
[15] = Cytotoxicity against human SKOV3 cells assessed as cell growth at 10^-7 M after 48 hrs by SRB assay relative to control; details: SK-OV-3, 48 h, read-out: Activity
A498 = assay: Cytotoxicity against human A498 cells assessed as cell growth at 10^-7 M after 48 hrs by SRB assay relative to control; details: A498, 48 h, read-out: Activity
CAKI-1 = assay: Cytotoxicity against human Caki1 cells assessed as cell growth at 10^-7 M after 48 hrs by SRB assay relative to control; details: CAKI-1, 48 h, read-out: Activity
[16] = Cytotoxicity against human UO31 cells assessed as cell growth at 10^-7 M after 48 hrs by SRB assay relative to control; details: UO-31, 48 h, read-out: Activity
MDA-MB-231 = assay: Cytotoxicity against human MDA-MB-231 cells assessed as cell growth at 10^-7 M after 48 hrs by SRB assay relative to control; details: MDA-MB-231, 48 h, read-out: Activity
HCC 2998 [17] = assay: Cytotoxicity against human HCC2998 cells assessed as cell growth at 10^-6 M after 48 hrs by SRB assay relative to control; details: HCC 2998, 48 h, read-out: Activity
SW-620 = assay: Cytotoxicity against human SW620 cells assessed as cell growth at 10^-6 M after 48 hrs by SRB assay relative to control; details: SW-620, 48 h, read-out: Activity
SF-539 = assay: Cytotoxicity against human SF539 cells assessed as cell growth at 10^-6 M after 48 hrs by SRB assay relative to control; details: SF-539, 48 h, read-out: Activity
SK-MEL-2 = assay: Cytotoxicity against human SK-MEL-2 cells assessed as cell growth at 10^-6 M after 48 hrs by SRB assay relative to control; details: SK-MEL-2, 48 h, read-out: Activity
786-0 = assay: Cytotoxicity against human 786-0 cells assessed as cell growth at 10^-6 M after 48 hrs by SRB assay relative to control; details: 786-0, 48 h, read-out: Activity
ACHN = assay: Cytotoxicity against human ACHN cells assessed as cell growth at 10^-6 M after 48 hrs by SRB assay relative to control; details: read-out: Activity
[18] = Cytotoxicity against human PC3 cells assessed as cell growth at 10^-6 M after 48 hrs by SRB assay relative to control; details: PC-3, 48 h, read-out: Activity
MDA-MB-468 [19] = assay: Cytotoxicity against human MDA-MB-468 cells assessed as cell growth at 10^-6 M after 48 hrs by SRB assay relative to control; details: MDA-MB-468, 48 h, read-out: Activity

## COc1ccc(CCN2COc3c([C@@H](C)CCC=C(C)C)ccc(C)c3C2)cc1OC
NCI-H460
  growth at 100 µM: -92%
HCC 2998 [1]
  growth at 100 µM: -100%
KM12
  growth at 100 µM: -75%
[2]
  GI50: 3.48 µM
  LC50 (concentration killing 50% of cells): 38.7 µM
  TGI: 14.6 µM
RXF 393 [3]
  GI50: 1.73 µM
  LC50 (concentration killing 50% of cells): 18.2 µM
  TGI: 4.85 µM
MDA-MB-468 [4]
  GI50: 1.23 µM
  LC50: 7.08 µM
  TGI: 9.95 µM
A549
  growth at 0.01 µM: 87%
COLO 205
  growth at 0.01 µM: 105%
SK-MEL-28
  growth at 100 µM: -95%
TK-10 [5]
  growth at 100 µM: -88%
[6]
  growth at 100 µM: -96%
[7]
  growth at 100 µM: -66%
T47D
  growth at 100 µM: -91%
[8]
  growth at 0.01 µM: 95%
[9]
  growth at 0.01 µM: 98%
RXF 393 [10]
  growth at 0.01 µM: 70%
TK-10 [11]
  growth at 0.01 µM: 88%
[12]
  growth at 0.01 µM: 94%
HL-60(TB)
  growth at 0.1 µM: 99%
SF-268
  growth at 0.1 µM: 79%
SNB-75
  growth at 0.1 µM: 86%
[13]
  growth at 0.1 µM: 91%
[14]
  growth at 0.1 µM: 98%
[15]
  growth at 0.1 µM: 98%
A498
  growth at 0.1 µM: 97%
CAKI-1
  growth at 0.1 µM: 91%
[16]
  growth at 0.1 µM: 92%
MDA-MB-231
  growth at 0.1 µM: 82%
HCC 2998 [17]
  growth at 1 µM: 88%
SW-620
  growth at 1 µM: 93%
SF-539
  growth at 1 µM: 96%
SK-MEL-2
  growth at 1 µM: 94%
786-0
  growth at 1 µM: 96%
ACHN
  growth at 1 µM: 85%
[18]
  growth at 1 µM: 81%
MDA-MB-468 [19]
  growth at 1 µM: 62%
